≈ marks a conversion by molar mass, not a printed value.
Legend:
Experiment in all cases: Antibacterial assay, microtitration MIC (Test A)
Type in all cases: cell-based
[1] = test system: H. influenzae HI-3542; settings: strain HI-3542; for MIC: Haemophilus influenzae, HI3542, Gram Negative Bacteria, read-out: Minimum Inhibitory Concentrations H. influenzae HI-3542
Description: (§1) The compounds of the present invention were tested against an assortment of Gram-negative and Gram-positive organisms using standard microtitration techniques (Cohen et. al., Antimicrob., 1985;28:766; Heifetz, et. al., Antimicrob., 1974;6:124). The results of the evaluation are shown in Tables 1A and B, wherein “-” means no data.

[2] = test system: M. catarrhalis BC-3531; settings: strain BC-3531; for MIC: Moraxella catarrhalis, BC3531, Gram Negative Bacteria, read-out: Minimum Inhibitory Concentrations M. catarrhalis BC-3531
Description: as §1

[3] = test system: E. coli EC-2549; settings: strain EC-2549; for MIC: Escherichia coli, EC2549, Gram Negative Bacteria, read-out: Minimum Inhibitory Concentrations E. coli EC-2549
Description: as §1

[4] = test system: E. faecalis MGH-2; settings: Enterococcus faecalis, MGH2, Gram Positive Bacteria; strain MGH-2; read-out: Minimum Inhibitory Concentrations E. faecalis MGH-2
Description: as §1

[5] = test system: S pyogenes C203; settings: Gram Positive Bacteria; strain C203; read-out: Minimum Inhibitory Concentrations S pyogenes C203
Description: as §1

[6] = test system: S. pneumo SV-1; settings: Gram Positive Bacteria; strain SV-1; read-out: Minimum Inhibitory Concentrations S. pneumo SV-1
Description: as §1

MIC [1] [µg/mL]	MIC [2] [µg/mL]	MIC [3] [µg/mL]	SMILES	other results
0.06 (≈ 0.112 µM)	0.125 (≈ 0.233 µM)	1 (≈ 1.86 µM)	Nc1nc(-n2cc(C(=O)O)c(=O)c3cc(F)c(N4CCC(C(O)C(F)(F)F)C4)c(Cl)c32)c(F)cc1F (centres unmarked) [drawing 333]	–
0.015 (≈ 0.0338 µM)	0.008 (≈ 0.018 µM)	0.125 (≈ 0.281 µM)	COc1c(N2CCC(C(O)C(F)(F)F)C2)c(F)cc2c(=O)c(C(=O)O)cn(C3CC3)c12 (centres unmarked) [drawing 331]	–
0.008 (≈ 0.0207 µM)	0.008 (≈ 0.0207 µM)	0.03 (≈ 0.0776 µM)	Cc1c(N2C[C@@H]3CC[C@@H](O)[C@@H]3C2)c(F)cc2c(=O)c(C(=O)O)cn(C3CC3)c12 [drawing 442]	–
0.016 (≈ 0.0385 µM)	0.016 (≈ 0.0385 µM)	0.125 (≈ 0.301 µM)	O=C(O)c1cn(C2CC2)c2nc(N3CCC(C(O)C(F)(F)F)C3)c(F)cc2c1=O (centres unmarked) [drawing 334]	–
0.015 (≈ 0.0388 µM)	0.008 (≈ 0.0207 µM)	0.125 (≈ 0.323 µM)	Cc1c(N2CC(CO)C3(CC3)C2)c(F)cc2c(=O)c(C(=O)O)cn(C3CC3)c12 (centres unmarked) [drawing 419]	–
0.5 (≈ 1.28 µM)	1 (≈ 2.56 µM)	4 (≈ 10.2 µM)	Cc1c(N2CCC(C(O)CO)C2)c(F)cc2c(=O)c(C(=O)O)cn(C3CC3)c12 (centres unmarked) [drawing 323]	–

The next lines start with the molecule.

SMILES	MIC [1] [µg/mL]	MIC [2] [µg/mL]	MIC [3] [µg/mL]	other results
O=C(O)c1cn(-c2ccc(F)cc2F)c2nc(N3C[C@@H](CO)[C@@H](CO)C3)c(F)cc2c1=O [drawing 379]	0.03 (≈ 0.0668 µM)	0.25 (≈ 0.556 µM)	0.5 (≈ 1.11 µM)	–
Cc1c(N2CC(C)(CO)C(C)(CO)C2)c(F)cc2c(=O)c(C(=O)O)cn(C3CC3)c12 (centres unmarked) [drawing 438]	–	–	–	Minimum Inhibitory Concentrations H. influenzae HI-3542 ([1]; Gram Negative Bacteria): 0.125 µg/mL; Minimum Inhibitory Concentrations M. catarrhalis BC-3531 ([2]; Gram Negative Bacteria): 0.25 µg/mL; Minimum Inhibitory Concentrations E. coli EC-2549 ([3]; Gram Negative Bacteria): 2 µg/mL
Cc1c(N2CCC(C(O)C(F)(F)F)C2)c(F)cc2c(=O)c(C(=O)O)cn(C3CC3)c12 (centres unmarked) [drawing 329]	0.06 (≈ 0.14 µM)	0.03 (≈ 0.07 µM)	0.5 (≈ 1.17 µM)	–
CC(O)(CO)C1CCN(c2c(F)cc3c(=O)c(C(=O)O)cn(C4CC4)c3c2Cl)C1 (centres unmarked) [drawing 372]	–	–	–	MIC [4]: 0.25 µg/mL (≈ 0.588 µM); MIC [5]: 0.25 µg/mL (≈ 0.588 µM); MIC [6]: 0.25 µg/mL (≈ 0.588 µM)
Cc1c(N2CC(C(O)CO)C(C)(C)C2)c(F)cc2c(=O)c(C(=O)O)cn(C3CC3)c12 (centres unmarked) [drawing 425]	0.06 (≈ 0.143 µM)	0.06 (≈ 0.143 µM)	0.5 (≈ 1.19 µM)	–
COc1c(N2CCC(C(O)C3(CO)CC3)C2)c(F)cc2c(=O)c(C(=O)O)cn(C3CC3)c12 (centres unmarked) [drawing 320]	0.03 (≈ 0.0672 µM)	–	0.25 (≈ 0.56 µM)	–
COC[C@@H]1CN(c2c(F)cc3c(=O)c(C(=O)O)cn(C4CC4)c3c2C)C[C@@H]1COC [drawing 388]	0.25 (≈ 0.597 µM)	0.125 (≈ 0.299 µM)	2 (≈ 4.78 µM)	–
Cc1c(N2CCC(C(C)O)C2)c(F)cc2c(=O)c(C(=O)O)cn(C3CC3)c12 (centres unmarked) [drawing 344]	–	–	–	MIC [4]: 0.06 µg/mL (≈ 0.16 µM); MIC [5]: 0.06 µg/mL (≈ 0.16 µM); MIC [6]: 0.03 µg/mL (≈ 0.0801 µM)
O=C(O)c1cn(C2CC2)c2c(Cl)c(N3CCC(C(O)C4(CO)CC4)C3)c(F)cc2c1=O (centres unmarked) [drawing 321]	0.008 (≈ 0.0177 µM)	0.016 (≈ 0.0355 µM)	0.06 (≈ 0.133 µM)	–
Cc1c(N2C[C@@H](CCO)[C@@H](CCO)C2)c(F)cc2c(=O)c(C(=O)O)cn(C3CC3)c12 [drawing 395]	0.015 (≈ 0.0358 µM)	0.06 (≈ 0.143 µM)	0.125 (≈ 0.299 µM)	–
Cc1c(N2CCC(C(O)C(F)F)C2)c(F)cc2c(=O)c(C(=O)O)cn(C3CC3)c12 (centres unmarked) [drawing 310]	0.008 (≈ 0.0195 µM)	0.008 (≈ 0.0195 µM)	0.06 (≈ 0.146 µM)	–
COc1c(N2CC(CO)C3(CC3)C2)c(F)cc2c(=O)c(C(=O)O)cn(C3CC3)c12 (centres unmarked) [drawing 420]	0.008 (≈ 0.0199 µM)	0.008 (≈ 0.0199 µM)	0.06 (≈ 0.149 µM)	–
Nc1c(F)c(N2CCC(C(O)C(F)(F)F)C2)c(F)c2c1c(=O)c(C(=O)O)cn2C1CC1 (centres unmarked) [drawing 332]	0.004 (≈ 0.00894 µM)	0.008 (≈ 0.0179 µM)	0.06 (≈ 0.134 µM)	–
COc1c(N2C[C@@H]3CC[C@@H](O)[C@@H]3C2)c(F)cc2c(=O)c(C(=O)O)cn(C3CC3)c12 [drawing 443]	0.03 (≈ 0.0745 µM)	0.03 (≈ 0.0745 µM)	0.25 (≈ 0.621 µM)	–
Cc1c(N2CCC(CCO)C2)c(F)cc2c(=O)c(C(=O)O)cn(C3CC3)c12 (centres unmarked) [drawing 308]	0.03 (≈ 0.0801 µM)	0.015 (≈ 0.0401 µM)	0.06 (≈ 0.16 µM)	–
O=C(O)c1cn(C2CC2)c2c(OC(F)F)c(N3CC4CC(O)C(O)C4C3)c(F)cc2c1=O (centres unmarked) [drawing 448]	0.03 (≈ 0.066 µM)	0.06 (≈ 0.132 µM)	0.5 (≈ 1.1 µM)	–
Nc1nc(-n2cc(C(=O)O)c(=O)c3cc(F)c(N4C[C@@H](O)[C@@H](O)C4)nc32)c(F)cc1F [drawing 380]	0.008 (≈ 0.0183 µM)	0.125 (≈ 0.286 µM)	0.25 (≈ 0.572 µM)	–

From patent US20050107423A1, “Quinolone antibacterial agents” (priority 2003, published 2005)
